{
  "source": "ChEMBL document CHEMBL1151225",
  "about": "“New neolignans that inhibit DNA polymerase beta lyase” (J Nat Prod, 2004)",
  "data": [
    {"target": "DNA polymerase beta (Homo sapiens, UniProt P06746)", "assay": "Inhibition of DNA polymerase beta lyase activity", "units": {"IC50": "µM"}, "values": [
      {"smiles": "C=CC[C@@]12C=C(O)C(=O)[C@](O)([C@H](c3ccc4c(c3)OCO4)[C@H]1C)[C@@H]2O", "IC50": "> 50"},
      {"smiles": "C=CCc1c(OC)cc(OC)c2c1OCO2", "IC50": 18.6},
      {"smiles": "C=CC[C@@]12C=C(O)C(=O)[C@](OC)([C@H](c3ccc4c(c3)OCO4)[C@H]1C)[C@@H]2O", "IC50": 21.6},
      {"smiles": "C=CC[C@]12C[C@@H](OC)C(=O)C(OC)=C1O[C@H](c1ccc3c(c1)OCO3)[C@H]2C", "IC50": 12.3},
      {"smiles": "C=CCc1c(OC)cc2c(c1OC)OCO2", "IC50": 34.2},
      {"smiles": "COc1c(/C=C/CO)cc2c(c1OC)OCO2", "IC50": "> 50"},
      {"smiles": "COc1cc2c(c(OC)c1/C=C/CO)OCO2", "IC50": 43.5},
      {"smiles": "C=CC[C@@]12C=C(OC)C(=O)[C@](O)([C@H](c3ccc4c(c3)OCO4)[C@H]1C)[C@@H]2O", "IC50": 15.3},
      {"smiles": "C=CC[C@@]12C=C(OC)C(=O)[C@](OC)([C@H](c3ccc4c(c3)OCO4)[C@H]1C)[C@@H]2O", "IC50": "> 50"},
      {"smiles": "C=CC[C@@]12C[C@H](OC)[C@@H](O)[C@@](OC)([C@@H]1O)[C@@H](c1ccc3c(c1)OCO3)[C@@H]2C", "note": "[CANELLIN A]", "IC50": 26.5},
      {"smiles": "C=CC[C@@]12CC(=O)[C@@H](O)[C@@](OC)([C@@H]1O)[C@@H](c1ccc3c(c1)OCO3)[C@@H]2C", "note": "[CANELLIN C]", "IC50": 32.4},
      {"smiles": "C=CCc1cc2c(c(OC)c1OC)OCO2", "note": "[DILLAPIOLE]", "IC50": "> 50"}
    ]}
  ]
}
